{"source": "paper PMC5433425", "about": "(PeerJ, 2017)", "key": {"E. coli AG100tet": {"tested_on": "E. coli AG100tet", "assay": "EtBr efflux by real-time fluorometry", "conditions": "80 µM"}, "E. coli AG100": {"tested_on": "E. coli AG100", "assay": "EtBr accumulation by real-time fluorometry", "conditions": "EtBr 1 µg/ml + inhibitor 80 µM"}}, "note": "Peptide text beside a SMILES is read from it. * marks the point of attachment. βNA = c1ccc2cc(N*)ccc2c1", "data": [{"compound": "NC(N)=NCCC[C@H](NC(=O)[C@@H](N)Cc1ccccc1)C(=O)Nc1ccc2ccccc2c1", "note": "[PAβN] (H-Phe-Arg-βNA)", "values": [{"measurement": "Fluorescence raw data, Channel Cycling A.530/585hp", "setting": "E. coli AG100tet; cycle 32, without glucose", "value": 2.166}, {"measurement": "Fluorescence raw data, Channel Cycling A.530/585hp", "setting": "E. coli AG100tet; cycle 33, + glucose", "value": 1.65}, {"measurement": "Fluorescence raw data, Channel Cycling A.530/585hp", "setting": "E. coli AG100tet; cycle 33, without glucose", "value": 2.197}, {"measurement": "Fluorescence raw data, Channel Cycling A.530/585hp", "setting": "E. coli AG100tet; cycle 34, + glucose", "value": 1.608}, {"measurement": "Fluorescence raw data, Channel Cycling A.530/585hp", "setting": "E. coli AG100tet; cycle 34, without glucose", "value": 2.188}, {"measurement": "Fluorescence raw data, Channel Cycling A.530/585hp", "setting": "E. coli AG100tet; cycle 35, + glucose", "value": 1.636}, {"measurement": "Fluorescence raw data, Channel Cycling A.530/585hp", "setting": "E. coli AG100tet; cycle 35, without glucose", "value": 2.154}, {"measurement": "Fluorescence raw data, Channel Cycling A.530/585hp", "setting": "E. coli AG100tet; cycle 36, + glucose", "value": 1.655}, {"measurement": "Fluorescence raw data, Channel Cycling A.530/585hp", "setting": "E. coli AG100tet; cycle 36, without glucose", "value": 2.1525}, {"measurement": "Fluorescence raw data, Channel Cycling A.530/585hp", "setting": "E. coli AG100tet; cycle 37, + glucose", "value": 1.639}, {"measurement": "Fluorescence raw data, Channel Cycling A.530/585hp", "setting": "E. coli AG100tet; cycle 37, without glucose", "value": 2.17}, {"measurement": "Fluorescence raw data, Channel Cycling A.530/585hp", "setting": "E. coli AG100tet; cycle 38, + glucose", "value": 1.617}, {"measurement": "Fluorescence raw data, Channel Cycling A.530/585hp", "setting": "E. coli AG100tet; cycle 38, without glucose", "value": 2.15}, {"measurement": "Fluorescence raw data, Channel Cycling A.530/585hp", "setting": "E. coli AG100tet; cycle 39, + glucose", "value": 1.593}, {"measurement": "Fluorescence raw data, Channel Cycling A.530/585hp", "setting": "E. coli AG100tet; cycle 39, without glucose", "value": 2.185}, {"measurement": "Fluorescence raw data, Channel Cycling A.530/585hp", "setting": "E. coli AG100tet; cycle 40, + glucose", "value": 1.564}, {"measurement": "Fluorescence raw data, Channel Cycling A.530/585hp", "setting": "E. coli AG100tet; cycle 40, without glucose", "value": 2.132}, {"measurement": "Fluorescence raw data, Channel Cycling A.530/585hp", "setting": "E. coli AG100tet; cycle 41, + glucose", "value": 1.567}, {"measurement": "Fluorescence raw data, Channel Cycling A.530/585hp", "setting": "E. coli AG100tet; cycle 41, without glucose", "value": 2.08}, {"measurement": "Fluorescence raw data, Channel Cycling A.530/585hp", "setting": "E. coli AG100tet; cycle 42, + glucose", "value": 1.587}, {"measurement": "Fluorescence raw data, Channel Cycling A.530/585hp", "setting": "E. coli AG100tet; cycle 42, without glucose", "value": 2.131}, {"measurement": "Fluorescence raw data, Channel Cycling A.530/585hp", "setting": "E. coli AG100tet; cycle 43, + glucose", "value": 1.59}, {"measurement": "Fluorescence raw data, Channel Cycling A.530/585hp", "setting": "E. coli AG100tet; cycle 43, without glucose", "value": 2.079}, {"measurement": "Fluorescence raw data, Channel Cycling A.530/585hp", "setting": "E. coli AG100tet; cycle 44, + glucose", "value": 1.59}, {"measurement": "Fluorescence raw data, Channel Cycling A.530/585hp", "setting": "E. coli AG100tet; cycle 44, without glucose", "value": 2.093}, {"measurement": "Fluorescence raw data, Channel Cycling A.530/585hp", "setting": "E. coli AG100tet; cycle 45, without glucose", "value": 2.121}, {"measurement": "Fluorescence raw data, Channel Cycling A.530/585hp", "setting": "E. coli AG100tet; cycle 46, without glucose", "value": 2.065}, {"measurement": "Fluorescence raw data, Channel Cycling A.530/585hp", "setting": "E. coli AG100tet; cycle 47, without glucose", "value": 2.081}, {"measurement": "Fluorescence raw data, Channel Cycling A.530/585hp", "setting": "E. coli AG100tet; cycle 48, without glucose", "value": 2.1149}, {"measurement": "Fluorescence raw data, Channel Cycling A.530/585hp", "setting": "E. coli AG100tet; cycle 49, without glucose", "value": 2.071}, {"measurement": "Fluorescence raw data, Channel Cycling A.530/585hp", "setting": "E. coli AG100tet; cycle 50, without glucose", "value": 2.047}, {"measurement": "Fluorescence raw data, Channel Cycling A.530/585hp", "setting": "E. coli AG100tet; cycle 51, without glucose", "value": 2.071}, {"measurement": "Fluorescence raw data, Channel Cycling A.530/585hp", "setting": "E. coli AG100tet; cycle 52, without glucose", "value": 2.107}, {"measurement": "Fluorescence raw data, Channel Cycling A.530/585hp", "setting": "E. coli AG100tet; cycle 53, without glucose", "value": 2.082}, {"measurement": "Fluorescence raw data, Channel Cycling A.530/585hp", "setting": "E. coli AG100tet; cycle 54, without glucose", "value": 2.046}, {"measurement": "Fluorescence raw data, Channel Cycling A.530/585hp", "setting": "E. coli AG100tet; cycle 55, without glucose", "value": 2.03}, {"measurement": "Fluorescence raw data, Channel Cycling A.530/585hp", "setting": "E. coli AG100tet; cycle 56, without glucose", "value": 2.023}, {"measurement": "Fluorescence raw data, Channel Cycling A.530/585hp", "setting": "E. coli AG100tet; cycle 57, without glucose", "value": 2.015}, {"measurement": "Fluorescence raw data, Channel Cycling A.530/585hp", "setting": "E. coli AG100tet; cycle 58, without glucose", "value": 2.049}, {"measurement": "Fluorescence raw data, Channel Cycling A.530/585hp", "setting": "E. coli AG100tet; cycle 59, without glucose", "value": 2.011}, {"measurement": "Fluorescence raw data, Channel Cycling A.530/585hp", "setting": "E. coli AG100tet; cycle 60, without glucose", "value": 2.05}, {"measurement": "Fluorescence raw data, Channel Cycling A.530/585hp", "setting": "E. coli AG100tet; cycle 61, without glucose", "value": 1.991}, {"measurement": "EtBr fluorescence", "setting": "E. coli AG100; cycle 1", "value": 5.077}, {"measurement": "EtBr fluorescence", "setting": "E. coli AG100; cycle 2", "value": 5.498}, {"measurement": "EtBr fluorescence", "setting": "E. coli AG100; cycle 3", "value": 5.692}, {"measurement": "EtBr fluorescence", "setting": "E. coli AG100; cycle 4", "value": 6.095}, {"measurement": "EtBr fluorescence", "setting": "E. coli AG100; cycle 5", "value": 6.2405}, {"measurement": "EtBr fluorescence", "setting": "E. coli AG100; cycle 6", "value": 6.476}, {"measurement": "EtBr fluorescence", "setting": "E. coli AG100; cycle 7", "value": 6.738}, {"measurement": "EtBr fluorescence", "setting": "E. coli AG100; cycle 8", "value": 6.948}, {"measurement": "EtBr fluorescence", "setting": "E. coli AG100; cycle 9", "value": 7.121}, {"measurement": "EtBr fluorescence", "setting": "E. coli AG100; cycle 10", "value": 7.401}, {"measurement": "EtBr fluorescence", "setting": "E. coli AG100; cycle 11", "value": 7.525}, {"measurement": "EtBr fluorescence", "setting": "E. coli AG100; cycle 12", "value": 7.725}, {"measurement": "EtBr fluorescence", "setting": "E. coli AG100; cycle 13", "value": 8.024}, {"measurement": "EtBr fluorescence", "setting": "E. coli AG100; cycle 14", "value": 8.041}, {"measurement": "EtBr fluorescence", "setting": "E. coli AG100; cycle 15", "value": 8.277}, {"measurement": "EtBr fluorescence", "setting": "E. coli AG100; cycle 16", "value": 8.537}, {"measurement": "EtBr fluorescence", "setting": "E. coli AG100; cycle 17", "value": 8.7426}, {"measurement": "EtBr fluorescence", "setting": "E. coli AG100; cycle 18", "value": 8.8367}, {"measurement": "EtBr fluorescence", "setting": "E. coli AG100; cycle 19", "value": 8.945}, {"measurement": "EtBr fluorescence", "setting": "E. coli AG100; cycle 20", "value": 9.137}, {"measurement": "EtBr fluorescence", "setting": "E. coli AG100; cycle 21", "value": 9.31}, {"measurement": "EtBr fluorescence", "setting": "E. coli AG100; cycle 22", "value": 9.534}, {"measurement": "EtBr fluorescence", "setting": "E. coli AG100; cycle 23", "value": 9.8}, {"measurement": "EtBr fluorescence", "setting": "E. coli AG100; cycle 24", "value": 9.927}, {"measurement": "EtBr fluorescence", "setting": "E. coli AG100; cycle 25", "value": 10.0486}, {"measurement": "EtBr fluorescence", "setting": "E. coli AG100; cycle 26", "value": 10.1364}, {"measurement": "EtBr fluorescence", "setting": "E. coli AG100; cycle 27", "value": 10.3331}, {"measurement": "EtBr fluorescence", "setting": "E. coli AG100; cycle 28", "value": 10.5844}, {"measurement": "EtBr fluorescence", "setting": "E. coli AG100; cycle 29", "value": 10.7732}, {"measurement": "EtBr fluorescence", "setting": "E. coli AG100; cycle 30", "value": 11.0863}]}]}
